Earlier results on three compounds are cited in US20110130355A1, “USE OF SOPHORICOSIDE IN THE MANUFACTURE OF MEDICAMENTS” (priority 2008, published 2011).

The test system of data set [1] is rabbit articular chondrocytes. Conditions: cited from earlier work.
The test system of another data set is ovariectomized rats. Conditions: cited from earlier work.
The subject of data set [2] is femoral-metaphyseal tissues. As to conditions: in vitro, tissues from aging female rats; cited from earlier work.

Read-outs that look alike come from different tables or passages of the source.

As to `C[C@]12CC[C@@H]3c4ccc(O)cc4CC[C@H]3[C@@H]1CC[C@@H]2O` [17β-estradiol], the “degradation of proteoglycan induced by interleukin (IL) 1β” value is “increased its effect” in data set [1] (high concentration, 10 nmol/l) and “inhibited the degradation of proteoglycan induced by interleukin (IL) 1β” in data set [1] (low concentration, 0.1 nmol/l).

Regarding `O=c1c(-c2ccc(O)cc2)coc2cc(O[C@@H]3O[C@H](CO)[C@@H](O)[C@H](O)[C@H]3O)cc(O)c12` [genistin, genistein-7-O-glucopyranoside], in the data set with ovariectomized rats, the “loss of bone mass” value was “prevent loss of bone mass”. Further, the “contents of alkaline phosphatase, DNA and calcium in the femoral-metaphyseal tissues” value in data set [2] is “substantially increases”.

On to `O=c1c(-c2ccc(O)cc2)coc2cc(O)cc(O)c12` [genistein], for which, in data set [2], the “contents of alkaline phosphatase, DNA and calcium in the femoral-metaphyseal tissues” value is listed as “substantially increases”.
